# US6710168B1, “Glycopeptide antibiotics, combinatorial libraries of glycopeptide antibiotics and methods of producing same” (The Trustees of the University of Princeton, priority 1999, dated 2004)
# Assays:
# Type in all cases: cell-based
# [1] = tested on: gentamicin, streptmycin, vancomycin resistant Enterococcus faecalis (ATCC 51299); test: microbe, parasite or virus in culture; conditions: for MIC: Enterococcus faecalis, ATCC51299, read-out: MIC VREF; for MIC VREF: Enterococcus faecalis ATCC51299, vancomycin resistance
# Protocol: (§1) Evaluation of vancomycin analogs is performed using in vitro susceptibility tests and a time-kill assay. [NCCL Standard, 1993] In susceptibility tests, five strains of bacteria, two of the most important: Staphylococcus aureus and Enterococcus faecalis (both susceptible and resistant strains), and Bacillus cereus are chosen and bacteria viability remaining in each well is evaluated using a colorimetric assay based on the tetrazolium salt 3-(4,5-dimethyl-2-thiazolyl)-2,5-diphenyl-2H tetrazolium bromide (MTT) and minimum inhibitory concentration (MIC) values are determined as μg/mL. [Mosmann, T. (1983); Damour, O., et al. (1992); Mikami, Y., et al. (1994)] This assay gives susceptibility information quickly, efficiently, and clearly.
# (§2) All strains [Bacillus cereus (ATCC® 11778), Staphylococcus aureus (ATCC® 29213), Methicillin resistant Staphylococcus aureus (ATCC® 33591), Enterococcus faecalis (ATCC® 29212), and gentamicin, streptmycin, vancomycin resistant Enterococcus faecalis (ATCC® 51299), are purchased from REMEL (Lenexa, Kans.).
# (§3) MICs are determined by the microdilution method using 96-well microplates. Samples are suspended with Cation Adjusted (20 to 25 mg of Ca^2+/mL and 10 to […] of Mg^2+) Mueller-Hinton broth (Difco Laboratories, Detroit, Mich.) and are two-fold diluted from 5 μg/mL to […] on microplates (12 step dilution). To each well, which contained 100 μL of cell suspension (10^6 CFU/mL), 100 μL of antibiotic solution is added and the plates are incubated at 37° C. for 24 h. 50 μL of MTT solution (1 mg/mL) is added to each well, then the plates are incubated under the same conditions (incubation time; 30 min for Bacillus cereus, Staphylococcus aureus, and Methicillin resistant Staphylococcus aureus; 2 hours for Enterococcus faecalis and Gentamicin, Streptmycin, Vancomycin Enterococcus faecalis). MTT is a yellow tetrazolium salt that is reduced by mitochondrial enzymes in viable cells to an insoluble blue formazan product. MIC values are evaluated by observing the lowest drug concentration to inhibit bacteria growth.
# [2] = tested on: Bacillus cereus (ATCC 11778); test: MIC susceptibility test, microdilution with MTT readout; conditions: for MIC: Bacillus cereus, ATCC11778, read-out: MIC BC; for MIC BC: Bacillus ceres ATCC11778
# Protocol: as §1, §2, §3
# [3] = tested on: Methicillin resistant Staphylococcus aureus (ATCC 33591); test: as above; conditions: Staphylococcus aureus ATCC3359, Methicillin resistance; for MIC: ATCC 3359 / ATCC 33591 / MRSA, read-out: MIC MRSA
# Protocol: as §1, §2, §3
# [4] = tested on: Staphylococcus aureus (ATCC 29213); test: as above; conditions: Staphylococcus aureus ATCC29213; for MIC: read-out: MIC SA
# Protocol: as §1, §2, §3
# [5] = tested on: Enterococcus faecalis (ATCC 29212); test: as above; conditions: Enterococcus faecalis ATCC29212; for MIC: read-out: MIC EF
# Protocol: as §1, §2, §3
# [6] = tested on: Enterococcus faecium CL5137, VanA; test: MIC susceptibility test; conditions: Enterococcus faecium CL5137, VanA; for MIC: read-out: MIC CL5137
# [7] = tested on: Enterococcus faecalis CL5244, VanB; test: MIC susceptibility test; conditions: Enterococcus faecalis CL5244, VanB; for MIC: read-out: MIC CL5244
# Protocol: as §1, §3
Structure (SMILES),MIC [1] [µg/mL],MIC [2] [µg/mL],MIC [3] [µg/mL],MIC [4] [µg/mL],MIC [5] [µg/mL],MIC [6] [µg/mL],MIC [7] [µg/mL],MIC VREF [1] [µg/mL],MIC BC [2] [µg/mL],MIC MRSA [3] [µg/mL],MIC SA [4] [µg/mL],MIC EF [5] [µg/mL],MIC CL5137 [6],MIC CL5244 [7] [µg/mL]
"CN[C@@H](CC(C)C)C(=O)N[C@H]1C(=O)N[C@@H](CC(N)=O)C(=O)N[C@H]2C(=O)NC3C(=O)N[C@H](C(=O)N[C@@H](C(=O)O)c4cc(O)cc(O)c4-c4cc3ccc4O)[C@H](O)c3ccc(c(Cl)c3)Oc3cc2cc(c3OC2OC(CSc3nc(C)cc(O)n3)C(O)C(O)C2OC2CC(C)(N)C(O)C(C)O2)Oc2ccc(cc2Cl)[C@H]1O (stereo partly drawn) [LXXVIII, Glucose-C6-2-thio-4-hydroxy-6-methylpyrimidine Vancomycin]",2.5,0.63,1.3,1,0.63,> 50,6.3,–,–,–,–,–,–,–
"CNC(CC(C)C)C(=O)NC1C(=O)NC(CC(N)=O)C(=O)NC2C(=O)NC3C(=O)NC(C(=O)NC(C(=O)O)c4cc(O)cc(O)c4-c4cc3ccc4O)C(O)c3ccc(c(Cl)c3)Oc3cc2cc(c3OC2OC(CSc3ccccc3)C(O)C(O)C2OC2CC(C)(N)C(O)C(C)O2)Oc2ccc(cc2Cl)C1O (stereo not drawn) [LIV, Glucose-C6-thiophenyl Vancomycin]",–,–,–,–,–,–,–,2.5,1.3,0.63,1.0,1.3,50< μg/mL,13
"CNC(CC(C)C)C(=O)NC1C(=O)NC(CC(N)=O)C(=O)NC2C(=O)NC3C(=O)NC(C(=O)NC(C(=O)O)c4cc(O)cc(O)c4-c4cc3ccc4O)C(O)c3ccc(c(Cl)c3)Oc3cc2cc(c3OC2OC(COS(=O)(=O)c3c(C)cc(C)cc3C)C(O)C(O)C2OC2CC(C)(N)C(O)C(C)O2)Oc2ccc(cc2Cl)C1O (stereo not drawn) [XLI, Glucose-C6-mesitylenesulfonyl Vancomycin]",–,–,–,–,–,–,–,1.3,1.3,1.3,0.63,1.3,50< μg/mL,6.3
"CN[C@@H](CC(C)C)C(=O)N[C@H]1C(=O)N[C@@H](CC(N)=O)C(=O)N[C@H]2C(=O)NC3C(=O)N[C@H](C(=O)N[C@@H](C(=O)O)c4cc(O)cc(O)c4-c4cc3ccc4O)[C@H](O)c3ccc(c(Cl)c3)Oc3cc2cc(c3OC2OC(CSc3nnc(NN)n3N)C(O)C(O)C2OC2CC(C)(N)C(O)C(C)O2)Oc2ccc(cc2Cl)[C@H]1O (stereo partly drawn) [LXXVII, Glucose-C6-5-thio-4-amino-3-hydrazino-1,2,4-triazole Vancomycin]",1.3,0.63,1.3,1.3,0.63,63,3.2,–,–,–,–,–,–,–
"CN[C@@H](CC(C)C)C(=O)N[C@H]1C(=O)N[C@@H](CC(N)=O)C(=O)N[C@H]2C(=O)NC3C(=O)N[C@H](C(=O)N[C@@H](C(=O)O)c4cc(O)cc(O)c4-c4cc3ccc4O)[C@H](O)c3ccc(c(Cl)c3)Oc3cc2cc(c3OC2OC(CSc3nnc(C)c(O)n3)C(O)C(O)C2OC2CC(C)(N)C(O)C(C)O2)Oc2ccc(cc2Cl)[C@H]1O (stereo partly drawn) [LXIV, Glucose-C6-2-thio-6-azathymine Vancomycin]",0.16,0.08,0.32,0.24,0.12,> 500,1.2,–,–,–,–,–,–,–
"CN[C@@H](CC(C)C)C(=O)N[C@H]1C(=O)N[C@@H](CC(N)=O)C(=O)N[C@H]2C(=O)NC3C(=O)N[C@H](C(=O)N[C@@H](C(=O)O)c4cc(O)cc(O)c4-c4cc3ccc4O)[C@H](O)c3ccc(c(Cl)c3)Oc3cc2cc(c3OC2OC(CSc3nc4cc(Cl)ccc4s3)C(O)C(O)C2OC2CC(C)(N)C(O)C(C)O2)Oc2ccc(cc2Cl)[C@H]1O (stereo partly drawn) [LXVI, Glucose-C6-2-thio-5-chlorobenzothiazole Vancomycin]",0.32,0.16,1.3,0.63,0.24,50,0.4,–,–,–,–,–,–,–
